The source made the active and inactive calls. No cut-off for these calls is given here.
What was measured:
Cannabinoid receptor 1 = Cannabinoid receptor 1 (Homo sapiens, UniProt P21554); experiment: Displacement of [3H]CP55940 from human recombinant CB1 receptor expressed in CHO cells after 2 hrs by liquid scintillation counting; assay type: cell-based
[1] = target: Cannabinoid receptor 2 (Homo sapiens) (UniProt P34972); experiment: Displacement of [3H]CP55940 from human recombinant CB2 receptor expressed in CHO cells at 10 uM after 2 hrs by liquid scintillation counting; assay type: cell-based
Cannabinoid receptor 2 (Homo sapiens), sequence (P34972 whole entry): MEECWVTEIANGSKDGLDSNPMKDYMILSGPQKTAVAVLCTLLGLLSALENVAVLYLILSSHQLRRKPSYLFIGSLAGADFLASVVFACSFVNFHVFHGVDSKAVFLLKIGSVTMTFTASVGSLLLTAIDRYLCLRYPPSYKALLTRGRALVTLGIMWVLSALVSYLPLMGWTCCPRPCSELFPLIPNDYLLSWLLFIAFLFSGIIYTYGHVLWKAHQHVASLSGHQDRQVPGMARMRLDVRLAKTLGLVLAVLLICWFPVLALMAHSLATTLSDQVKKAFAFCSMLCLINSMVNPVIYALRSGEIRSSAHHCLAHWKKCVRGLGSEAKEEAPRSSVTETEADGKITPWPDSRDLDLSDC

Cannabinoid receptor 1, sequence (P21554 whole entry): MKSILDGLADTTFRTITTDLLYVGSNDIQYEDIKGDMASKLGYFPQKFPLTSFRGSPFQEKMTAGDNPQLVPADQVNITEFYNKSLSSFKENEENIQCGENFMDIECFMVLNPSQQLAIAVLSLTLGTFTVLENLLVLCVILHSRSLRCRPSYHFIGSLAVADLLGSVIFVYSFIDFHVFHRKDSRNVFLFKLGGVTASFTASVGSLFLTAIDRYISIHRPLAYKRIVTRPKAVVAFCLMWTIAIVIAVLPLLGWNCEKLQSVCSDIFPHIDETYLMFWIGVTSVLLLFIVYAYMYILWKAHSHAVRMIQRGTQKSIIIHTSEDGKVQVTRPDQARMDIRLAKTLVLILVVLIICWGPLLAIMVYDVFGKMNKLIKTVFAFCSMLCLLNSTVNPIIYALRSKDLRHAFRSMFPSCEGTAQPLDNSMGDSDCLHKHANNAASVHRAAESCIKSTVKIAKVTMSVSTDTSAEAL

C=CC(C)(C)[C@@]12C[C@H]3C(=O)N4[C@@H](C[C@@]5(C(C)(C)C=C)c6ccccc6N[C@@H]45)C(=O)N3[C@@H]1Nc1ccccc12 [AMAUROMINE]
Ki (Cannabinoid receptor 1): 178 nM
Activity [1]: inactive

From ChEMBL document CHEMBL2021922, “Identification of a Potent and Selective Cannabinoid CB1 Receptor Antagonist from Auxarthron reticulatum” (ACS Med Chem Lett, 2011)
